For one assay, the system named is B16F10 cells. Kind of assay: Influence on anticancer action of 2-DG, cell viability (Test Example 3). Format: cell-based, mouse. Particulars: 2-DG 3 mM to 3 nM, negative control section (DMSO), 36 hours. The protocol: Specifically, to start with, B16F10 cells were seeded in a six-well plate in an amount of 0.5×10^5 cells/mL. Next, after 24 hours starting from seeding, 2-DG (concentration changed from 3 mM to 3 nM) was added and simultaneously treated with neopetasin at a concentration of 0.3 µM or 3 µM. Then, after 36 hours starting from this treatment, the cell viability was measured through the same method as in Test Example 1. Moreover, as a negative control section, DMSO was administered to perform the same experiment.

In assay [1] the test system is CMeCl cells (canine malignant melanoma cells). Kind of assay: Proliferation inhibition, CMeC1 cells, trypan blue viable cell count (Test Example 1). Format: cell-based. Particulars: Cell line: CMeC1, incubated for 72 hours; for IC50: read-out: IC50. The method, then: Four compounds of petasin, S-petasin, neopetasin and neo-S-petasin were evaluated for the inhibitory effect on proliferation of mouse or canine malignant melanoma cells by the following method.
B16F10 cells (mouse malignant melanoma cells) were obtained from JCRB Cell Bank (National Institutes of Biomedical Innovation, Health and Nutrition). In addition, CMeCl cells (canine malignant melanoma cells) were obtained from Veterinary Surgery Laboratory, Graduate School of Agricultural and Life Sciences, the University of Tokyo. Furthermore, A2058 cells (human malignant melanoma cells) were obtained from JCRB Cell Bank (National Institutes of Biomedical Innovation, Health and Nutrition). B16F10 cells were cultured in a 37° C. incubator (air/CO2 = 95/5 (v/v)) using Dulbecco’s modified Eagle’s medium (DMEM), CMeCl cells in RPMI (Roswell Park Memorial Institute) medium (RPMI1640), and A2058 cells in E-MEM medium.
First, CMeCl cells (canine malignant melanoma cells) were seeded in a six-well plate so as to be 0.5×10^5 cells/mL, and after 24 hours therefrom, each of the above four kinds of compounds (final concentration: 0.01 to 100 µg/mL) was suspended in the medium at a ratio of 0.1% and incubated for 72 hours. 72 hours after the start of culture, the number of viable cells was measured by trypan blue staining. At this time, viable cells (cell viability%) were calculated as the relative number of cells when the number of viable cells in a negative control section (DMSO treatment) was taken as 100%. Then, IC50 was calculated using a GraphPad Prism software system (GraphPad Software Inc.).

Another assay deals with colon cancer cell lines. The conditions noted are these: cited from earlier work.
Assay [2] relates to B16F10 cells (mouse malignant melanoma cells). The conditions noted are these: cited from earlier work.
In assay [3] the test system is mitochondria in B16F10 cells. Kind of assay: MitoTracker Orange staining of mitochondria (Test Example 8). Format: cell-based, mouse. The conditions noted are these: neopetasin 3 µM, metformin 5000 µM; 48 hours. The method, then:
In order to determine the action mechanism of neopetasin on inhibiting the aspartic acid synthesis in tumor cells, the influence of neopetasin on mitochondria in B16F10 cells was evaluated. Specifically, B16F10 cells treated with neopetasin (3 µM) for 48 hours through the same method as in Test Example 1 were stained using MitoTracker Orange (Thermo Fisher Scientific, MA, USA), which labels mitochondria depending on membrane potential. In addition, as a positive control section, in place of neopetasin, metformin known as a mitochondrial respiratory chain Complex I inhibitor (mitochondrial toxin) was used at a concentration of 5000 µM to perform the same experiment. Subsequently, the cells stained as described above were photographed with a fluorescence microscope (FIG. 9A). In addition, the relationship between fluorescence intensity of the cells and the distribution of the number of cells was measured using an image cytometer (Tali, Thermo Fisher Scientific, MA, USA) (FIG. 9B).

Assay [4] relates to mitochondria in B16F10 cells. Nature of the assay: Electron microscope observation of treated cells (Test Example 8). In kind it is cell-based, mouse. Particulars: neopetasin 3 µM, metformin 5000 µM. The protocol:
Following the above results, the cells respectively treated with neopetasin (3 µM) and metformin (5000 µM) in the above were observed using an electron microscope. Furthermore, DMSO was administered to the negative control section, and the same experiment was performed.

Values after ≈ are worked out from the molar mass of the structure shown. Read-outs that look alike come from different tables or passages of the source.

In the case of `O=CC[C@@H](O)[C@H](O)[C@H](O)CO` [2-DG, 2-deoxy-D-glucose, reference compound], in the assay on B16F10 cells, the cell viability result is listed as “reduced in a concentration-dependent manner”.

For `C=C(C)[C@@H]1C[C@@]2(C)C(=CC1=O)CC[C@@H](OC(=O)/C(C)=C\C)[C@@H]2C` [Petasin, petasin], the IC50 (as a rule, the concentration needed to halve the response being measured) in assay [1] (Canis lupus familiaris, 72 h) came to 2810 nM. Also, in the assay with colon cancer cell lines, the “migration and invasion of colon cancer cell lines” value was “suppressed migration and invasion”; the “proliferation of colon cancer cell lines” value is “inhibited proliferation”.

For the compound `C=C(C)[C@@H]1C[C@@]2(C)C(=CC1=O)CC[C@@H](OC(=O)/C=C\SC)[C@@H]2C` [S-petasin, reference compound], in assay [1], the “IC50 (µg/mL)” value stood at 0.755 µg/mL (≈ 2.26 µM) and the IC50 turned out to be 2260 nM.

With `N.N.[Cl][Pt][Cl]` [cisplatin], the “IC50 for B16F10 cells (classical anticancer agent)” value in assay [2] is 5 µg/mL.

As for `CN(C)C(=N)N=C(N)N` [metformin, reference compound], the “MitoTracker Orange fluorescence intensity” value in assay [3] was “enhanced fluorescence intensity”. For the same compound, the “influence on mitochondria (electron microscope)” value in assay [4] is listed as “the influence on mitochondria was mild”.

Consider neo-S-petasin [reference compound], for which, in assay [1], the “IC50 (µg/mL)” value is reported as 0.537 µg/mL and the IC50 amounted to 1600 nM.
